This is an account of results in patent publication US11324826B2, “Multifunctional treatment and diagnostic compositions and methods” (priority 2018, dated 2022).

“And” between values parts separate entries of the source, which are not always exact repeats. Equal values may be shown once.

The subject of data set [1] is BL21 E. coli. Description: In vitro BL21 E. coli growth inhibition in aerobic conditions, visible light versus dark. Type of data set: cell-based. Conditions: growth recorded after 48 hours. Here is the method:
Method to assess bacteria inhibition examined in vitro effects with BL21 E. coli. […] Prior art procedure reported in Photochemistry and Photobiology 2010, 86 (4), 890-894 was followed to grow E. coli cells, even though other prior art procedures can be used. BL21 was selected because of availability. […] Luria Broth (LB)-Lennox formulation were allowed to grow in an incubator at 28° C. shaking at 250 rpm until the beginning of their exponential growth phase (A600=0.2). For each experiment, one milliliter of the E. coli solution was centrifuged and washed with sterile water once. After removing washing liquid, the E. coli solutions were then re-suspended in 500.0 μL of sterile water and 200 μL of stock solutions of each of the following were added: (a) DHN (4.2×10^−44.20×10^−4 M), (b) Juglone (4.2×10^−44.20×10^−4 M), (c) Fe(III) (3.5×10^−4 M) and TMPyP (2.1×10^−52.10×10^−5 M), (d) DHN (4.2×10^−44.20×10^−4 M) and TMPyP (2.1×10^−52.10×10^−5 M), (e) Fe(III) (3.5×10^−4M), DHN (4.2×10^−4 M) and TMPyP (2.1×10^−5 M), (f) Fe(III) (3.5×10^−4 M), Juglone (4.2×10^−4 M) and TMPyP (2.1×10^−5 M), and TMPyP (2.1×10^−5).
Controls of each sample were prepared similarly and kept covered to assure that no light was reacted with the TMPyP while other samples were irradiated in a Rayonet photoreactor for 10 minutes. After irradiation, the 700.0 μL samples were briefly vortexed and then 20.0 μL of each sample was spread evenly over individual petri dishes containing LB agar. The plates were inverted, then incubated at 28° C. for 48 hours.
A “light versus dark” comparison study was performed by introducing treatment composition into two equal concentrations of E. coli bacteria solutions, one E. coli solution was kept in dark while other was irradiated with visible light.
As part of the test, a comparison study, including “light versus dark” was performed of treatment composition (FIG. 22E Fe(III) (3.5×10^−4 M), DHN (4.2×10^−4M) and TMPyP (2.1×10^−5 M), versus FIG. 22A DHN (4.2×10^−4 M), FIG. 22B Juglone (4.2×10^−4 M), FIG. 22C Fe(III) (3.5×10^−4 M) and TMPyP (2.1×10^−5 M), FIG. 22D DHN (4.2×10^−4 M) and TMPyP (2.1×10^−5 M), and FIG. 22F Fe(III) (3.5×10^−4 M), Juglone (4.2×10^−4 M) and TMPyP (2.1×10^−5 M).

The nature of data set [2]: Photooxidation of DHN under visible light irradiation in anaerobic (argon purged) solution, DHN absorption monitored at 301 nm. Conditions: for Photooxidation of DHN (in words): anaerobic; for Rate, first order rate constant of DHN photooxidation: anaerobic conditions, visible light, acetonitrile:water (6:4). Here is the method:
First, the treatment composition (DHN+TMPyP+Fe(III)) was compared against commercially available Fe(III)TMPyP and prepared TMPyP+Fe(II), all in presence of DHN, to determine if any or all can produce hydroxyl radical (OH) in anaerobic condition. An aqueous solution of TMPyP and DHN was thoroughly purged with argon followed by irradiation with visible light. DHN's absorption at 301 nm was recorded in 2 minute intervals to monitor in situ production of OH in solution.

For data set [3] the following is noted: aqueous solution, 655 nm CW laser, calculated with Equation 1.
Experimental: Singlet Oxygen Quantum Yield (ΦΔ) of TMPyP was determined using DHN (1.2×10^−4 M) as a singlet oxygen quencher and methylene blue (MB) as a reference standard. A 3 mL solution of TMPyP (6.0×10^−6 M) solution and MB (1.0×10^−5 M) solution both of which contain DHN (1.2×10^−4 M) were prepared. Each solution was irradiated with a 655 nm CW laser and the UV-vis spectrum of each solution was recorded at 1 min intervals for 5 minutes. The quantum yields were calculated with Equation 1 by using ΦΔ(s) of MB (ΦΔ=0.52) reported in the prior art.
[formula] In Equation 1, S is the slope of the plot of the absorbance versus irradiation, and F is the absorption correction factor.
To determine the efficiency of TMPyP for singlet oxygen generation in aqueous solution, ^1O2 quantum yield (ΦΔ) was calculated by using methylene blue as a standard with a known ΦΔ of 0.52. […] Most importantly, the reaction of DHN and ^1O2 can be monitored by observing gradual decrease of the absorption of DHN peaks from 295 nm to 355 nm and so DHN can be used as a ^1O2 probe for ^1O2 quantum yield (ΦΔ) measurement.
Above cited Equation 1 was followed to calculate ^1O2 quantum yield (ΦΔ) for TMPyP, where S is the slope of the plot of the absorbance versus irradiation, and F is the absorption correction factor.
The conditions of data set [4]: reported in the prior art; cited from earlier work.
A short description of data set [5]: Photooxidation of DHN under visible light irradiation in aerobic solution, DHN absorption monitored at 301 nm. The conditions noted are these: for Rate, first order rate constant of DHN photooxidation: aerobic conditions, visible light, acetonitrile:water (6:4). The method, then: For a typical experiment, microliter amounts of standard solutions were combined, for illustration not limitation, microliter amounts of a standard solution of Fe(III) solutions (30 μL of 1.0×10^−2 M) and DHN solution (36 μL of 1.0×10^−2 M) added into a cuvette containing 3 mL of solution TMPyP (6.00×10^−6 M). Quartz cuvettes with 1 cm path-length and 3 mL volume were used for all measurements.
For singlet oxygenation of 1,5-dihydroxynaphthalene (DHN) by TMPyP in aqueous solution, a 3 mL solution of DHN (1.2×10^−4 M) and TMPyP (6.0×10^−6 M) was prepared by mixing 36 μL of 1×10^−2 M of DHN standard solution and 18 μL of 1×10^−3 M of TMPyP standard solution with ultrapure water. The solution was prepared at room temperature in an open atmosphere. Photooxygenation of samples was performed in a Rayonet photoreactor and monitored by recording a decrease of UV-vis absorption. For example, photoxygenation of DHN by TMPyP was performed in a Rayonet photoreactor for approximately twenty minutes at 28° C. and the photooxygenation of DHN was monitored by recording a decrease of UV-vis absorption of DHN at 301 nm for 20 minutes in 2 minutes intervals. The effect of metal ions on singlet oxygen generation was studied similarly except with the addition of microliter amounts of M^2+ or M^3+ ions (1×10^−2 M) (positively charged cations with a +2 charge or a +3 charge) into a DHN/TMPyP aqueous solution.

The conditions of data set [6]: aqueous solution 6.0×10^−6 M, excitation 423 nm, calculated with Equation 3.
Experimental: For fluorescence study, three solutions of 3 mL volume were prepared. Study solution 1 (aqueous solution of TMPyP) was prepared by mixing 18 μL of 1.0×10^−3 M TMPyP with ultrapure water. Study solution 2 (aqueous solution of TMPyP and Fe(III) ions) was made by mixing 18 μL of 1.0×10^−3 M TMPyP and 30 μL of 1.0×10^−2 M iron(III) chloride with ultrapure water. Study solution 3 (aqueous solution of TMPyP and DHN) was prepared by mixing 18 μL of 1.0×10^−3 M TMPyP and 36 μL of 1.0×10^−2 M DHN with ultrapure water. Fluorescence emission was measured upon excitation of each solution at 423 nm with an excitation slit width of 10.0 nm and an emission slit width of 12.0 nm. Each experiment was carried out at room temperature and under normal atmospheric conditions.
Crystal violet (1.0×10^−5 M) with a known ΦF=0.020 in water was used as a standard.
Then the fluorescence quantum yield (ΦF) of TMPyP was calculated by using Equation 3 and crystal violet (1.0×10^−5 M) as a standard with ΦF=0.020 in water, fluorescence quantum yield known from the prior art.
[formula] where in Equation 3, A is the absorbance, F represents the area under the emissions curve, and n is the refractive index of the solvent used.
For data set [7] the following is noted: in water, prior art literature value; cited from earlier work.
The subject of data set [8] is BL21 E. coli. Description: In vitro BL21 E. coli growth inhibition in hydrogen peroxide rich environment under dark conditions. Type of data set: cell-based. Conditions: alone at the experimental concentration (Fe(III) 1.0×10^−4 M or 1.0×10^−3 M; 400 μM H2O2). Here is the method: To determine utility for treatment of bacteria of the claimed treatment compositions in an aqueous H2O2 rich environment (typical tumor environment), E. coli bacteria were mixed with the treatment composition in the presence of H2O2 in dark conditions under normal room temperature and pressure. […] A series of control reactions were carried out to see if alone, any of Fe(III) ions with 1.0×10^−4 M concentration (FIG. 23A) or Fe(III) ions with 1.0×10^−3 M concentration (FIG. 23B) or 400 μM H2O2 (FIG. 23C) can inhibit the growth of E. coli bacteria under identical reaction conditions.

Where [9] appears, read: irradiated with visible light 10 minutes.

Consider `O=C1C=CC(=O)c2c(O)cccc21` [Juglone, 5-hydroxy-1,4-naphthalenedione], for which the “Inhibition of E. coli growth” value with BL21 E. coli [1] (setting [9]) and in the data set with BL21 E. coli [1] (kept in dark) was “complete inhibition” in each case.

On to `C[n+]1ccc(-c2c3nc(c(-c4cc[n+](C)cc4)c4ccc([nH]4)c(-c4cc[n+](C)cc4)c4nc(c(-c5cc[n+](C)cc5)c5ccc2[nH]5)C=C4)C=C3)cc1.[Cl-].[Cl-].[Cl-].[Cl-]` [TMPyP, meso-tetra(N-methyl-4-pyridyl) porphine tetrachloride], for which the “Photooxidation of DHN (in words)” value in data set [2] (absence of Fe(III) ions, FIG. 13) is listed as “negligible photooxidation”; in data set [2] (presence of Fe(III) ions, FIG. 14), “substantial photooxidation”. For the same compound, the “Singlet oxygen quantum yield (ΦΔ)” value in data set [3] is on record as 0.503. In data set [4], the “Singlet oxygen quantum yield (ΦΔ), prior art” value was 0.58 and 0.74 and 0.9. The “Maximum rate of photooxidation of DHN by TMPyP (k)” value in data set [5] (aerobic, Fe(III) ions about 50 μL of 1.0×10^−2 M) is 0.000943 s⁻¹. For the same compound, the “Rate constant of DHN photooxidation by TMPyP” value in data set [5] (aerobic, metal free solution) was 0.000658 s⁻¹. Also, the “Rate of photooxidation of DHN by TMPyP (k)” value is 0.00039 s⁻¹ in data set [5] (aerobic, upon addition of 10 μL of 1.0×10^−3 M of Fe(III) ions) and 0.000568 s⁻¹ in data set [5] (aerobic, upon addition of 75 μL of 1.0×10^−2 M of Fe(III) ions). Moreover, in data set [6], the “Fluorescence quantum yield (ΦF)” value is recorded as 0.0139. The “Fluorescence quantum yield (ΦF), prior art” value in data set [7] is on record as 0.016.

With `[Cl][Fe]([Cl])[Cl]` [Fe(III) ions, iron (III) chloride], the “Inhibition of growth of E. coli, control alone” value in the data set with BL21 E. coli [8] is given as “No noticeable inhibition”.

Consider `Oc1ccc(-c2c3nc(c(-c4ccc(O)cc4)c4ccc([nH]4)c(-c4ccc(O)cc4)c4nc(c(-c5ccc(O)cc5)c5ccc2[nH]5)C=C4)C=C3)cc1` [p−THP, meso-tetra(p-hydroxyphenyl)porphine], for which the “Rate, first order rate constant of DHN photooxidation” value is 2e-05 s⁻¹ in data set [2] and 0.0008 s⁻¹ in data set [5].

On to `C[n+]1ccc(C2=C3C=CC(=N3)C(c3cc[n+](C)cc3)=c3ccc4[n]3[Fe+][n]3c2ccc3C(c2cc[n+](C)cc2)=C2C=CC(=N2)C=4c2cc[n+](C)cc2)cc1` [Fe(III)TMPyP, Fe(III) bound meso-tetrakis(N-methyl-4-pyridyl) porphyrin], for which, in data set [2] (anaerobic aqueous environment, FIG. 12), the “Rate constant k of photo-oxidation of DHN” value is 5.5e-05 s⁻¹. The “Rate constant of photooxidation of DHN” value in data set [5] (aerobic aqueous environment, FIG. 11) turned out to be 4.67e-05 s⁻¹. In addition, the “Rate Constant, kobs, of DHN decay kinetics” value in data set [5] (aerobic aqueous solution as printed, DHN 1.2×10^−4 M, porphyrin 6.0×10^−6 M, iron 1.0×10^−4 M, 301 nm) amounted to 5.5e-05 s⁻¹.

For `OO` [H2O2, hydrogen peroxide], the “Inhibition of growth of E. coli, control alone” value with BL21 E. coli [8] is “No noticeable inhibition”.

Regarding `CN(C)c1ccc(C(=C2C=CC(=[N+](C)C)C=C2)c2ccc(N(C)C)cc2)cc1` [Crystal violet], the “Fluorescence quantum yield (ΦF), prior art” value in data set [7] was 0.020.

For the compound `Oc1cccc2c(O)cccc12` [DHN, 1,5-dihydroxynaphthalene], the “Inhibition of E. coli growth” value in the data set with BL21 E. coli [1] (setting [9]) was “very marginal inhibition effect”; with BL21 E. coli [1] (kept in dark), “almost no inhibition”.

Regarding `Oc1cccc(-c2c3nc(c(-c4cccc(O)c4)c4ccc([nH]4)c(-c4cccc(O)c4)c4nc(c(-c5cccc(O)c5)c5ccc2[nH]5)C=C4)C=C3)c1` [m−THP, meso-tetra(m-hydroxyphenyl)porphine], the “Rate, first order rate constant of DHN photooxidation” value in data set [2] is 4e-05 s⁻¹; in data set [5] it was 0.0012 s⁻¹.

Take `CN(C)c1ccc2nc3ccc(=[N+](C)C)cc-3sc2c1` [methylene blue]: the “Singlet oxygen quantum yield (ΦΔ), prior art” value in data set [4] is reported as 0.52.
